Measurements taken from US20110274679A1, “Compositions and Methods of SIRT Activation” (VDF FutureCeuticals, Inc., priority 2008, published 2011).

Test system: SIRT
Test: in vitro SIRT activity in treated cells, lysed after treatment (BioMol SIRT Activity Assay kit)
Type: cell-based
Conditions: depending on the cell line; positive control
Excerpt: Among other suitable combinations, one exemplary SIRT activating combination of B-vitamins was formulated that included a combination of vitamin B2, B1, B3, B6, B12, and B5. Using that combination, HeLa cells were separately treated in vitro for 4 hrs, along with a reference compound (here: resveratrol) as positive control, as well as individually with the respective above vitamins at a total concentrations of 0.1% (wt/vol) of culture medium. To measure SIRT activation, the cells were lysed after treatment and SIRT activity was determined using a commercially available SIRT Activity Assay kit (BioMol, Inc.; Catalog #KI-104).
Moreover, in vitro activation with the known SIRT activator resveratrol was, depending on the cell line, between about 15-120% of untreated control, making the SIRT activation with the vitamin compounds even more remarkable.
In an experiment similar to that above, FIG. 2 depicts further combinations for selected vitamin B compounds in which the columns show the results for A (Riboflavin, vitamin B2), B (Thiamine, vitamin B1), C (Niacinamide, vitamin B3), D (Pyridoxine, vitamin B6), E (Cyanocobolamin, vitamin B12), F (Ca-Panthotenate, vitamin B5), G=Blend of A-F (VSIRT), H (Pyrodoxine, vitamin B6 plus Cobalamin, vitamin B12), 0.05% each, and I (H plus Riboflavin, vitamin B2) (0.033% each). […]

Structure (SMILES): Oc1ccc(C=Cc2cc(O)cc(O)c2)cc1 [resveratrol]
- in vitro activation of SIRT: 15-120 % of untreated control
